Legend:
Type in all cases: functional
Rattus norvegicus [1] = experiment: Percent reduction in swelling of the left hind paw in rat when 100 mg/kg of dose was injected perorally which was determined in adjuvant arthritis test; details: route oral
Rattus norvegicus [2] = experiment: Percent reduction in swelling of the left hind paw in rat when 10 mg/kg of dose was injected perorally which was determined in adjuvant arthritis test; details: route oral
Rattus norvegicus [3] = experiment: Percent reduction in swelling of the left hind paw in rat determined in adjuvant arthritis test, 50 mg/kg dose perorally; details: route oral
Rattus norvegicus [4] = species on record: Rattus norvegicus; experiment: Activity relative to fenclofenac determined in adjuvant arthritis test
Rattus norvegicus [5] = experiment: Percent reduction in swelling of the left hind paw in rat determined in adjuvant arthritis test, 25 mg/kg dose was perorally; details: route oral
Rattus norvegicus [6] = experiment: Minimum ulcerogenic dose was evaluated 24 hours after peroral administration; value may range from 25-50
Rattus norvegicus [7] = experiment: Minimum ulcerogenic dose was evaluated 24 hours after peroral administration; value may range from 100-200
Rattus norvegicus [8] = experiment: Minimum ulcerogenic dose was evaluated 24 hours after peroral administration

Row | Compound | Reduction (Rattus norvegicus [3]) | Relative potency (Rattus norvegicus [4]) | Reduction (Rattus norvegicus [5]) | other results
1 | Nc1cc(Cl)ccc1Oc1ccccc1CC(=O)O | – | – | – | Reduction (Rattus norvegicus [1]): 4%
2 | Cc1cccc([N+](=O)[O-])c1Oc1ccccc1CC(=O)O | – | – | – | Reduction (Rattus norvegicus [2]): 26%
3 | CN1CCc2ccccc2Oc2c(Cl)cccc21 | 31% | 1.4 | – | –
4 | O=CN1CCc2ccccc2Oc2c(Cl)cccc21 | – | – | – | Reduction (Rattus norvegicus [1]): 33%
5 | CCCN1CCc2ccccc2Oc2c(Cl)cc(Cl)cc21 | 39% | 0.6 | – | –
6 | C[N+]1([O-])CCc2ccccc2Oc2c(Cl)cc(Cl)cc21 (stereo not drawn) | 42% | 2.2 | – | –
7 | c1ccc2c(c1)CCNc1ccccc1O2 | 6% | – | – | –
8 | Cc1ccc2c(c1)CCNc1cccc(Cl)c1O2 | 22% | – | – | –
9 | COc1cc(N)c(Oc2ccccc2CC(=O)O)c(Cl)c1 | – | – | 24% | –
10 | CCC[N+]1([O-])CCc2ccccc2Oc2c(Cl)cc(Cl)cc21 (stereo not drawn) | 36% | – | – | –
11 | Nc1c(Cl)cc(Cl)cc1Oc1ccccc1CC(=O)O | – | 6.6 | – | Reduction (Rattus norvegicus [2]): 37%
12 | O=C(O)Cc1cccc(Cl)c1Oc1c(Cl)cccc1[N+](=O)[O-] | – | – | 1% | –
13 | CCCC(=O)N1CCc2ccccc2Oc2c(Cl)cc(Cl)cc21 | – | – | – | Reduction (Rattus norvegicus [1]): 8%
14 | NNC(=O)N1CCc2ccccc2Oc2c(Cl)cc(Cl)cc21 | – | 0.6 | 32% | –
15 | Cc1cc(N)c(Oc2ccccc2CC(=O)O)c(Cl)c1 | – | – | 20% | –
16 | Nc1ccc(Cl)cc1Oc1ccccc1CC(=O)O | – | – | 12% | –
17 | Cc1ccc2c(c1)CCNc1cc(Cl)c(Cl)cc1O2 | 8% | – | – | –
18 | Nc1cc(Br)cc(Br)c1Oc1ccccc1CC(=O)O | – | 8.6 | 50% | MUD (Rattus norvegicus [6]): 25 mg/kg
19 | Clc1ccc(CN2CCc3ccccc3Oc3c(Cl)cc(Cl)cc32)cc1 | 10% | – | – | –
20 | Cc1cccc(CC(=O)O)c1Oc1c(Cl)cccc1[N+](=O)[O-] | – | – | 0% | –
21 | CCc1cc(Cl)c2c(c1)NCCc1cc(C)ccc1O2 | – | – | – | Reduction (Rattus norvegicus [1]): 13%
22 | O=C(Cc1ccccc1Oc1c(Cl)cccc1[N+](=O)[O-])NO | 36% | – | – | –

Row | Compound | Reduction (Rattus norvegicus [3]) | Relative potency (Rattus norvegicus [4]) | Reduction (Rattus norvegicus [5]) | other results
23 | COC(=O)Cc1ccccc1Oc1c(Cl)cc(Cl)cc1NC(C)=O | – | – | 18% | –
24 | Clc1ccc2c(c1)CCNc1cc(Cl)cc(Cl)c1O2 | 25% | 0.8 | – | –
25 | Nc1cccc(Cl)c1Oc1cc(Cl)ccc1CC(=O)O | – | – | 1% | –
26 | CCc1cc(N)c(Oc2ccc(C)cc2CC(=O)O)c(F)c1 | – | – | 1% | MUD (Rattus norvegicus [7]): 100 mg/kg
27 | O=C(O)Cc1ccccc1Oc1c([N+](=O)[O-])cc(Cl)c(Cl)c1Cl | – | 0.6 | – | Reduction (Rattus norvegicus [2]): 17%
28 | O=C(Cl)N1CCc2ccccc2Oc2c(Cl)cc(Cl)cc21 | 7% | – | – | –
29 | CCc1cc(N)c(Oc2ccc(C)cc2CC(=O)O)c(Cl)c1 | – | 1 | 34% | –
30 | Cc1ccc2c(c1)NCCc1ccccc1O2 | 0% | – | – | –
31 | NC(=O)Cc1ccccc1Oc1c(Cl)cccc1[N+](=O)[O-] | 36% | 1.1 | – | MUD (Rattus norvegicus [8]): >800 mg/kg
32 | COc1cc(Cl)c2c(c1)NCCc1ccccc1O2 | 18% | – | – | –
33 | Fc1cccc2c1Oc1ccccc1CCN2 | 0% | – | – | –
34 | CN1CCc2cc(Cl)ccc2Oc2c(Cl)cccc21 | 13% | – | – | –
35 | Clc1ccc2c(c1)NCCc1ccccc1O2 | 0% | – | – | –
36 | Cc1ccc2c(c1)CCN(C)c1cccc(Cl)c1O2 | 15% | – | – | –
37 | CN1CCc2ccccc2Oc2c(Cl)cc(Cl)cc21 | 35% | 2.4 | – | –
38 | Clc1cccc2c1Oc1ccccc1CCN2 | – | 0.2 | – | Reduction (Rattus norvegicus [1]): 33%
39 | Clc1ccc2c(c1)Oc1ccccc1CCN2 | 0% | – | – | –
40 | CCc1cc(Cl)cc(N)c1Oc1ccccc1CC(=O)O | – | 2.8 | – | Reduction (Rattus norvegicus [2]): 25%
41 | CNc1cccc(Cl)c1Oc1ccccc1CCO | – | 5 | – | MUD (Rattus norvegicus [7]): 100 mg/kg; Reduction (Rattus norvegicus [2]): 36%
42 | O=C(O)Cc1ccccc1Oc1c([N+](=O)[O-])ccc(Cl)c1Cl | – | – | 25% | –
43 | Nc1cccc(Cl)c1Oc1ccccc1CC(=O)OC1OC(=O)c2ccccc21 (stereo not drawn) | – | – | – | Reduction (Rattus norvegicus [1]): 36%
44 | Cc1cc(Cl)cc(N)c1Oc1ccccc1CC(=O)O | – | 5.6 | – | MUD (Rattus norvegicus [6]): 25 mg/kg; Reduction (Rattus norvegicus [2]): 34%

Row | Compound | Reduction (Rattus norvegicus [3]) | Relative potency (Rattus norvegicus [4]) | Reduction (Rattus norvegicus [5]) | other results
45 | COC(=O)Cc1ccccc1Oc1c(N)cccc1Cl | – | – | 35% | –
46 | Clc1ccc2c(c1)Oc1c(Cl)cccc1NCC2 | 10% | – | – | –
47 | Cc1cc(N)c(Oc2ccc(Cl)cc2CC(=O)O)c(Cl)c1 | – | 1.4 | 32% | –
48 | COC(=O)Cc1ccccc1Oc1c(Cl)cc(Cl)cc1N(C)C | – | 2.7 | – | Reduction (Rattus norvegicus [2]): 33%
49 | Nc1cccc(Cl)c1Oc1ccccc1CC(=O)O | – | 3.5 | 36% | MUD (Rattus norvegicus [6]): 25 mg/kg
50 | O=C(O)Cc1ccccc1Oc1c(Cl)cc(Cl)cc1[N+](=O)[O-] | – | – | 36% | –
51 | CCC(C)c1cc(Cl)c2c(c1)NCCc1cc(C)ccc1O2 (stereo not drawn) | 14% | – | – | –
52 | Cc1cc(Cl)cc2c1Oc1ccccc1CCN2 | 32% | 0.9 | – | –
53 | Cc1c(Cl)ccc(N)c1Oc1ccccc1CC(=O)O | – | 4.1 | 34% | MUD (Rattus norvegicus [7]): 100 mg/kg
54 | CNc1cccc(Cl)c1Oc1ccccc1CC(=O)O | – | 15 | – | MUD (Rattus norvegicus [8]): <12.5 mg/kg
55 | Cc1ccc2c(c1)CCNc1cc(Cl)cc(Cl)c1O2 | 17% | – | – | –
56 | Nc1cccc(F)c1Oc1ccccc1CC(=O)O | – | – | 27% | –
57 | C[N+]1([O-])CCc2ccccc2Oc2c(Cl)cccc21 (stereo not drawn) | – | 0.7 | 23% | –
58 | CCC(C)c1cc(N)c(Oc2ccc(C)cc2CC(=O)O)c(Cl)c1 (stereo not drawn) | – | – | – | Reduction (Rattus norvegicus [2]): 10%
59 | O=C(c1ccc(Cl)cc1)N1CCc2ccccc2Oc2c(Cl)cc(Cl)cc21 | 0% | – | – | –
60 | CCOC(=O)N1CCc2ccccc2Oc2c(Cl)cc(Cl)cc21 | – | 0.5 | – | Reduction (Rattus norvegicus [2]): 21%
61 | Cc1cc(N)c(Oc2ccc(C)cc2CC(=O)O)c(Cl)c1 | – | – | 3% | –
62 | C/C=C/CN1CCc2ccccc2Oc2c(Cl)cc(Cl)cc21 | 21% | – | – | –
63 | O=C(O)Cc1ccccc1Oc1c(Cl)cc(Cl)c(Cl)c1[N+](=O)[O-] | – | – | – | Reduction (Rattus norvegicus [2]): 30%
64 | Clc1ccc2c(c1)CCNc1cccc(Cl)c1O2 | 16% | – | – | –
65 | CCN(CC)C(=O)Cc1ccccc1Oc1c(N)cccc1Cl | 6% | – | – | –
66 | Nc1cc(Cl)c(Cl)c(Cl)c1Oc1ccccc1CC(=O)O | – | 8.2 | – | Reduction (Rattus norvegicus [2]): 33%

Row | Compound | Reduction (Rattus norvegicus [3]) | Relative potency (Rattus norvegicus [4]) | Reduction (Rattus norvegicus [5]) | other results
67 | Cc1cc(Cl)cc([N+](=O)[O-])c1Oc1ccccc1CC(=O)O | – | 3.3 | 34% | –
68 | Oc1ccc2c(c1)CCNc1cc(Cl)cc(Cl)c1O2 | – | – | – | Reduction (Rattus norvegicus [2]): 2%
69 | CC(=O)NNC(=O)N1CCc2ccccc2Oc2c(Cl)cc(Cl)cc21 | – | – | – | Reduction (Rattus norvegicus [1]): 18%
70 | Nc1ccc(Cl)c(Cl)c1Oc1ccccc1CC(=O)O | – | – | 33% | –
71 | C=CCN1CCc2ccccc2Oc2c(Cl)cc(Cl)cc21 | 18% | – | – | –
72 | Cc1ccc(Oc2cc(Cl)c(Cl)cc2N)c(CC(=O)O)c1 | – | – | 10% | –
73 | CNc1cccc(C)c1Oc1ccccc1CC(=O)O | – | 6.5 | 46% | MUD (Rattus norvegicus [6]): 25 mg/kg
74 | Clc1cc(Cl)c2c(c1)N(Cc1ccccc1)CCc1ccccc1O2 | – | – | – | Reduction (Rattus norvegicus [2]): 2%
75 | COC(=O)Cc1ccccc1Oc1c(Cl)cccc1[N+](=O)[O-] | – | – | 31% | –
76 | Cc1cc(Cl)c2c(c1)NCCc1cc(Cl)ccc1O2 | – | 0.5 | – | Reduction (Rattus norvegicus [1]): 21%
77 | Nc1cccc(N)c1Oc1ccccc1CC(=O)O | – | – | 5% | –
78 | Cc1c(Cl)c(C)c2c(c1Cl)Oc1ccccc1CCN2 | 6% | – | – | –
79 | O=C(O)Cc1ccccc1Oc1ccccc1[N+](=O)[O-] | 1% | – | – | –
80 | O=C(O)Cc1ccccc1Oc1ccc(C(F)(F)F)cc1[N+](=O)[O-] | – | – | – | Reduction (Rattus norvegicus [1]): 29%
81 | O=C(O)Cc1ccccc1Oc1cc(Cl)cc(Cl)c1[N+](=O)[O-] | – | 2.9 | – | Reduction (Rattus norvegicus [2]): 34%
82 | CC(C)(C)OC(=O)Cc1ccccc1Oc1c(Cl)cccc1[N+](=O)[O-] | 21% | – | – | –
83 | NC(=O)Cc1ccccc1Oc1c(N)cccc1Cl | 14% | – | – | –
84 | CNC(=O)N1CCc2ccccc2Oc2c(Cl)cc(Cl)cc21 | – | – | – | Reduction (Rattus norvegicus [2]): 4%
85 | Clc1ccc2c(c1)CCNc1c(Cl)ccc(Cl)c1O2 | 14% | – | – | –
86 | CNc1cc(Cl)cc(C)c1Oc1ccccc1CC(=O)O | – | 2.8 | – | Reduction (Rattus norvegicus [2]): 28%
